A short description of series [1]: Stability in the presence of base: aqueous NaOAc, fluoride ion measurement. The class given is physicochemical. The following applies: 10 g with 10 g 0.1M NaOAc, 110° C., 16 hours. On the procedure: To assess hydrolytic stability, a ten gram sample of alkoxy-substituted perfluorocompound was combined with 10 g of 0.1M NaOAc and sealed in a 2.54 cm (internal diameter) by 9.84 cm Monel™ 400 alloy (66% nickel, 31.5% copper, and 1.2% iron and several minor components) tube (available from Paar Instrument Co. of Moline, Ill. as Part Number 4713cm). The tube was heated at 110° C. in a forced air convection oven for 16 hours. After cooling to room temperature, a 1 mL sample of the tube contents was diluted with 1 mL of total ionic strength adjustment buffer (TISAB, available from Orion Research, Inc., a mixture of 1,2-cyclohexylene dinitrilotetraacetic acid, deionized water, sodium acetate, sodium chloride, and acetic acid). The concentration of fluoride ion (resulting from any reaction of the perfluorocompound with the aqueous NaOAc) was measured using an Orion Model 720A Coulombmeter with a F-specific electrode which had been previously calibrated using 0.5 and 500 ppm F^− solutions. Based on the measured fluoride ion concentration, the rate at which HF had been generated by reaction of the aqueous NaOAc with the perfluorocompound was calculated.

Series [2] can be described thus: Hydrolytic stability under more severely basic conditions (aqueous KOH reflux). The class given is physicochemical. To be noted: refluxed at 58° C. for 19 hours. On the procedure: To assess hydrolytic stability under more severely basic conditions, C4F9OCH3 (125 g of 99.8% purity, 0.5 mole) was combined with potassium hydroxide ([…], dissolved in 26.1 g water) in a 250 mL flask equipped with an overhead stirrer, a condenser, and a thermometer, and the resulting solution was refluxed at 58° C. for 19 hours. Water (50 mL) was added to the solution after refluxing, and the resulting product was distilled. The lower fluorochemical phase of the resulting distillate was separated from the upper phase and was washed with water (100 mL) to yield 121.3 g of recovered C4F9OCH3, which was identical in purity and composition to the starting material (as shown by gas chromatography).

Series [3] is described as follows: Stability in the presence of oxidant (potassium permanganate in acetone). The format is physicochemical. The following applies: refluxed four hours. On the procedure: To assess oxidative stability, potassium permanganate (20 g, 0.126 mole) was dissolved in acetone, and C4F9OCH3 (500 g of 99.9% purity, 2.0 mole) was added to the resulting solution. The solution was refluxed for four hours, with no indication that the permanganate had been consumed (as evidenced by the absence of brown MnO2). The refluxed solution was then distilled into a 500 mL Barrett trap filled with water. The lower fluorochemical phase of the resulting mixture was separated from the upper phase, was washed with four 1.5 L aliquots of water, and was dried by passage through a column of silica gel to yield 471 g of resulting product.

The nature of series [4]: Flash point testing ASTM D3278-89. The format is physicochemical. On the procedure:
The alkoxy-substituted perfluorocompounds C4F9OCH3, C4F9OC2H5, and c-C6F11OCH3 were tested for flash point by the standard method defined by ASTM D3278-89.

Series [5] can be described thus: Pump oil removal with boiling mixed terpenes/perfluorocompound mixture. To be noted: boiling mixture 40 volume % mixed terpenes, 60 volume % fluorinated component. On the procedure: The above-described test coupon was dipped into DuoSeal Pump Oil (available from Sargent-Welch), was immersed in a boiling mixture of 40 volume % of a solvating agent comprising mixed terpenes having a boiling range of 243-274° C. and 60 volume % of alkoxy-substituted perfluorocompound (a cleaning composition of the invention), was cooled for 60 seconds, and was then immersed in mixture vapor for 30 seconds. The percent oil removal was determined in the above-described manner.

Series [6] can be described thus: Ability to dissolve halogenated oils (miscibility). The format is physicochemical. The following applies: room temperature. On the procedure: The ability of alkoxy-substituted perfluorocompounds to dissolve several halogenated oils was determined by adding a measured amount of oil to alkoxy-substituted perfluorocompound until the resulting mixture became turbid or phase-split. […] The results (shown in Table 12) indicate that alkoxy-substituted perfluorocompounds have very high ability to dissolve halogenated oils. Thus, the perfluorocompounds can be used as carrier solvents for halogenated oils in the deposition of coatings of such oils on substrate surfaces.

Series [7] is described as follows: Open cup flash point ASTM D1310-86. The format is physicochemical. On the procedure:
Various properties were measured for C4F9OCH3, CHClFCF2OCH3, and blends of each ether compound with cosolvent, trans-1,2-dichloroethylene (hereinafter, t-DCE) or n-butyl bromide, at various weight ratios.

Results on 1 compound are retold here after US20010044404A1, “Cleaning process and composition” (3M Innovative Properties Company, priority 1995, published 2001).

As for `COC(F)(F)C(F)(F)C(F)(F)C(F)(F)F` [Example C4F9OCH3, perfluorobutyl methyl ether], the “HF Generation Rate” value in series [1] amounted to 0.67 µg/g/h. Also, in series [2], the “Stability in the presence of base” value was “stable in the presence of the base”. The “Stability in the presence of oxidant” value in series [3] is “stable in the presence of the oxidant”. The Flash point entry in series [4] was “no flash point”. In addition, the “Percent Soil Removed” value in series [5] worked out at 86.4%. In addition, the Miscibility with solute result in series [6] (Brayco 815Z Perfluoropolyether (MW about 10,000)), in series [6] (Chlorotrifluoroethylene Fluid (Inland 41 Vacuum Pump Oil)) and in series [6] (Fomblin AM-2001 Functionalized Perfluoropolyether) was “Miscible (greater than or equal to 50 percent by volume solubility at room temperature)” throughout. In addition, the “Open Cup Flash Point (ASTM D1310-86)” value is listed as “none” in series [7] (20 weight % ether, 80 % t-DCE); “none” in series [7] (50 weight % ether, 50 % t-DCE); “none” in series [7] (80 weight % ether, 20 % t-DCE); “none” in series [7] (100 weight % ether, 0 % t-DCE).
